Experimental data: publication PMC5078040 (Oncotarget, 2016)

Assays:
AML patient primary cell = test: Anti-proliferative efficacy against patient primary cells; type: cell-based; conditions: Homo sapiens
Method: Mononuclear cells were isolated from AML patients. Mononuclear cells were isolated by density gradient centrifugation through Ficoll-Plaque Plus (Amersham Pharmacia Biotech AB, Uppsala, Sweden) at 2000 rpm for 30 minutes, followed by two washes in 1X PBS. Freeze-thawed cells were then cultured in liquid culture (DMEM, supplemented with 20% FBS). All blood and bone marrow samples from AML patients were obtained through written consent under approval of the Dana Farber Cancer Institute Institutional Review Board. The ethics committees approved the consent procedure.
Cells were grown in 96-well culture plates (3000-4000/well). […] Cell proliferation was determined after treatment with compounds for 72 hours. Cell viability was measured using the CellTiter–Glo Assay Kit (Promega, USA), according to the manufacturer's instructions, and luminescence was measured in a multi-label reader (Envision, PerkinElmer, USA). Data were normalized to control groups (DMSO) and represented by the mean of three independent measurements with standard error <20%. GI50 values were calculated using Prism 5.0 (GraphPad Software, San Diego, CA).

EPHA5 = target: T1, EPHA5 (Homo sapiens, UniProt P54756); test: KinomeScan; type: binding; conditions: 1uM
T1 construct: purchased DiscoveRx KINOMEscan

PLK4 = target: T2, PLK4 (Homo sapiens, UniProt O00444); test: KinomeScan; type: binding; conditions: 1uM
T2 construct: purchased DiscoveRx KINOMEscan

NLK = target: T3, NLK (Homo sapiens, UniProt Q9UBE8); test: KinomeScan; type: binding; conditions: 1uM
T3 construct: purchased DiscoveRx KINOMEscan
T3 sequence (Q9UBE8 whole entry): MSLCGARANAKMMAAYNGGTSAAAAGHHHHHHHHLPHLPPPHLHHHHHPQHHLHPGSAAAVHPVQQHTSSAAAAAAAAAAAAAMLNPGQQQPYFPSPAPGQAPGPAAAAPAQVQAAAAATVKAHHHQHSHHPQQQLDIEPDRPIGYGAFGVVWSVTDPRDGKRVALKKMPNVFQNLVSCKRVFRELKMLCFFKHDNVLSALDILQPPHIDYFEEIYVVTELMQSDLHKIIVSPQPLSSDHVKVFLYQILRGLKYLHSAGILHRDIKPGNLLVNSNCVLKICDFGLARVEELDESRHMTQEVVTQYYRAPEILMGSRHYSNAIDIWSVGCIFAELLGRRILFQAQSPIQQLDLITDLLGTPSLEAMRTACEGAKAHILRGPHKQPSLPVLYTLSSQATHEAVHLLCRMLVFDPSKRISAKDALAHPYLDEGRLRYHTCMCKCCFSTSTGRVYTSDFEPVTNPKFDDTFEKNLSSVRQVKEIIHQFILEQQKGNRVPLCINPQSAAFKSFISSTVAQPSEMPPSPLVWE

PRKX = target: T4, PRKX (Homo sapiens, UniProt P51817); test: KinomeScan; type: binding; conditions: 1uM
T4 construct: purchased DiscoveRx KINOMEscan
T4 sequence (P51817 whole entry): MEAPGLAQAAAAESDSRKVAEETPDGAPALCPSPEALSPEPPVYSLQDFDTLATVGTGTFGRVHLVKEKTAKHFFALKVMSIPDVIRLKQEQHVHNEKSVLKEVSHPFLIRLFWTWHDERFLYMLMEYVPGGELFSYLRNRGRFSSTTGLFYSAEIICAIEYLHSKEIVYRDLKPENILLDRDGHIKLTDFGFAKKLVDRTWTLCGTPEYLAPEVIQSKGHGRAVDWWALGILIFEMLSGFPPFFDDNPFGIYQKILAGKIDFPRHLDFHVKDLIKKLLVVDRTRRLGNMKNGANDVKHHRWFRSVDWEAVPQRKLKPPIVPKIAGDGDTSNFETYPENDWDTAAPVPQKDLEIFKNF

MAP4K3 = target: T5, MAP4K3 (Homo sapiens, UniProt Q8IVH8); test: KinomeScan; type: binding; conditions: 1uM
T5 construct: purchased DiscoveRx KINOMEscan
T5 sequence (Q8IVH8 whole entry): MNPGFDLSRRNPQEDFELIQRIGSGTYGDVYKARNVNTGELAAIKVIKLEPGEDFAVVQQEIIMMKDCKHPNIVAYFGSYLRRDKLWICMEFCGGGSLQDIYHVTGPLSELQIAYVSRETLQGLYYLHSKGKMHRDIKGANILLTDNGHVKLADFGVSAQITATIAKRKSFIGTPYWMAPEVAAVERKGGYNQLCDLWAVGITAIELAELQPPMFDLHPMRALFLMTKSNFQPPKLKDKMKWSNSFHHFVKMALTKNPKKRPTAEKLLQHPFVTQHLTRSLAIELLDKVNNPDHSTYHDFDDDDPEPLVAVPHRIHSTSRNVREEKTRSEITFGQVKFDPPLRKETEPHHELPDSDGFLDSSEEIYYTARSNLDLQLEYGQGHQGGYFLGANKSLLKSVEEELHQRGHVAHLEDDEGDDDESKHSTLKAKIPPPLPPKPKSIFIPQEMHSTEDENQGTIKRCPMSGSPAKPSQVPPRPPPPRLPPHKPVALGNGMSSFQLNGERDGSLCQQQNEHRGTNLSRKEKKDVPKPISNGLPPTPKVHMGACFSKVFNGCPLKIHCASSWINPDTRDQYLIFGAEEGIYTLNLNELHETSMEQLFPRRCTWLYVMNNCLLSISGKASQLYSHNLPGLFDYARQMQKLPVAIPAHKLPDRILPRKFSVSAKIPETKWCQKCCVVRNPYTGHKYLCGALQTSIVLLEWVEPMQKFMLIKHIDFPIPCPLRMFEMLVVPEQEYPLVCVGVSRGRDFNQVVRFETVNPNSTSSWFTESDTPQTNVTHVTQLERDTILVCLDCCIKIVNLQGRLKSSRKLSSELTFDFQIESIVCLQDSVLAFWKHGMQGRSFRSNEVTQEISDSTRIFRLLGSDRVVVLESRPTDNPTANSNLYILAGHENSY

NEK1 = target: T6, NEK1 (Homo sapiens, UniProt Q96PY6); test: KinomeScan; type: binding; conditions: 1uM
T6 construct: purchased DiscoveRx KINOMEscan

PI4KA = target: T7, PI4KA (Homo sapiens, UniProt P42356); test: ADP-glo biochemical assay
T7 construct: purchased Invitrogen
Method: (§1) The reaction in each tube was started immediately by adding ATP and kept going for an hour under 37°C. After the tube cooled for 5 minutes at room temperature, 5 μL solvent reactions were carried out in a 384-well plate. Then 5 μL of ADP-Glo™ reagent was added into each well to stop the reaction and consume the remaining ADP within 40 minutes. At the end, 10 μL of kinase detection reagent was added into the well and incubated for 30 minutes to produce a luminescence signal. Luminescence signal was measured with an automated plate reader (Perkin-Elmer Envision) and each measurement was performed in triplicate.

ERBB4 = target: T8, ERBB4 (Homo sapiens, UniProt Q15303); test: KinomeScan; type: binding; conditions: 1uM
T8 construct: purchased DiscoveRx KINOMEscan

STK35 = target: T9, STK35 (Homo sapiens, UniProt Q8TDR2); test: KinomeScan; type: binding; conditions: 1uM
T9 construct: purchased DiscoveRx KINOMEscan

PIK3C2B = target: T10, PIK3C2B (Homo sapiens, UniProt O00750); test: ADP-glo biochemical assay
T10 construct: purchased Invitrogen
Method: as §1

WEE1 = target: T11, WEE1 (Homo sapiens, UniProt P30291); test: KinomeScan; type: binding; conditions: 1uM
T11 construct: purchased DiscoveRx KINOMEscan

AXL = target: T12, AXL (Homo sapiens, UniProt P30530); test: KinomeScan; type: binding; conditions: 1uM
T12 construct: purchased DiscoveRx KINOMEscan

TGFBR1 = target: T13, TGFBR1 (Homo sapiens, UniProt P36897); test: KinomeScan; type: binding; conditions: 1uM
T13 construct: purchased DiscoveRx KINOMEscan

LKB1 = target: T14, LKB1 (Homo sapiens, UniProt Q15831); test: KinomeScan; type: binding; conditions: 1uM
T14 construct: purchased DiscoveRx KINOMEscan
T14 sequence (Q15831 whole entry): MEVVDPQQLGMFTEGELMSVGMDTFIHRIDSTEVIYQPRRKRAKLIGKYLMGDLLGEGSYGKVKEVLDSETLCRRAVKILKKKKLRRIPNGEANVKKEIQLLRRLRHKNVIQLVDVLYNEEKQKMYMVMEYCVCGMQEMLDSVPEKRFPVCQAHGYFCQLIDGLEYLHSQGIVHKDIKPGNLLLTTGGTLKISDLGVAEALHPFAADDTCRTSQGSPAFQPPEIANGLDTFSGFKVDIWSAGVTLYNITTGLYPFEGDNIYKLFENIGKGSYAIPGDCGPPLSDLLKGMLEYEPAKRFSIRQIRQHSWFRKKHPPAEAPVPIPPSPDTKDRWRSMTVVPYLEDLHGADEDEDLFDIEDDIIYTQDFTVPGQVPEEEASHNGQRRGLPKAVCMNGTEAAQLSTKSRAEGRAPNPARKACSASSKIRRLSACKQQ

[1] = target: T15, RSK1(Kin.Dom.2-C-terminal) (Homo sapiens, UniProt Q15418); test: KinomeScan; type: binding; conditions: 1uM
T15 construct: RSK1(Kin.Dom.2-C-terminal); purchased DiscoveRx KINOMEscan
T15 sequence (Q15418 392-735 limits assumed): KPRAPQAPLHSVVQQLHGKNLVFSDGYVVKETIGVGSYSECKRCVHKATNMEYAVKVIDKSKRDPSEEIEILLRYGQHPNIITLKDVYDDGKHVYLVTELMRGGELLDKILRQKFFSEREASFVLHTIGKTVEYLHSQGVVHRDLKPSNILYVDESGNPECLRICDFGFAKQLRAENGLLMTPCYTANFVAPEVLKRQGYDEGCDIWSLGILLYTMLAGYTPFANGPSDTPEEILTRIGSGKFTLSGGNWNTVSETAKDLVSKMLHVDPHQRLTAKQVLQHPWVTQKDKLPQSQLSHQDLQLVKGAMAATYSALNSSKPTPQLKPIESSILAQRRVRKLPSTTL

p38-alpha = target: T16, p38-alpha (Homo sapiens, UniProt Q16539); test: KinomeScan; type: binding; conditions: 1uM
T16 construct: purchased DiscoveRx KINOMEscan

NIK = target: T17, NIK (Homo sapiens, UniProt Q99558); test: KinomeScan; type: binding; conditions: 1uM
T17 construct: purchased DiscoveRx KINOMEscan

PDGFRB = target: T18, PDGFRB (Homo sapiens, UniProt P09619); test: KinomeScan; type: binding; conditions: 1uM
T18 construct: purchased DiscoveRx KINOMEscan
T18 sequence (P09619 33-1106): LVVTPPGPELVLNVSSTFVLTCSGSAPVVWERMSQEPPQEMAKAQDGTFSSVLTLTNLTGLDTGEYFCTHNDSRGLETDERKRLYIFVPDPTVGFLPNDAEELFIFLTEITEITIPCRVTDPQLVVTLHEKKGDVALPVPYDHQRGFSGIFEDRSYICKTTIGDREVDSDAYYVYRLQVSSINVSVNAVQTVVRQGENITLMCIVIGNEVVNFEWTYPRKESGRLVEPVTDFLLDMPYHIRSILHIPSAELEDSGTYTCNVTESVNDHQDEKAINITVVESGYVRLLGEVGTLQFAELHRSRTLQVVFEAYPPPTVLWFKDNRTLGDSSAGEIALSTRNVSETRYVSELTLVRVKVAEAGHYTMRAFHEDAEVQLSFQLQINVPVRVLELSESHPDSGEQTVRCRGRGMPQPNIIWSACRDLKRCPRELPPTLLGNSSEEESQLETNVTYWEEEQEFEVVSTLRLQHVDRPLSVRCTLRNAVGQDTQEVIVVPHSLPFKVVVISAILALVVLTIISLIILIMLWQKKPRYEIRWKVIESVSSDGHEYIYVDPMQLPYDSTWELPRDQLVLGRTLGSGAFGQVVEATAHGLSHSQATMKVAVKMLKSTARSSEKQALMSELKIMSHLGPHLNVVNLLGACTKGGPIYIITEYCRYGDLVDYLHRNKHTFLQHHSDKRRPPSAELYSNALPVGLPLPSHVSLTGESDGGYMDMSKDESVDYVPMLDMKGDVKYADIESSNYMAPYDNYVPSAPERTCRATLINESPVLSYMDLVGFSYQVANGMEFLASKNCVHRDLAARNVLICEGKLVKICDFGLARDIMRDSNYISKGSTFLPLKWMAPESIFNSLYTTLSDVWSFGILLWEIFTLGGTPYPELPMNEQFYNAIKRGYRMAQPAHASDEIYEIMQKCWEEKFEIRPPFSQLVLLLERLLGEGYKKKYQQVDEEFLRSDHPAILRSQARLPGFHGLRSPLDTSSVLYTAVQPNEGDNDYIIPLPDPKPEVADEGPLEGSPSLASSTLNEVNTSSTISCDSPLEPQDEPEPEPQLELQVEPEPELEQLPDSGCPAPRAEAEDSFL

RIOK2 = target: T19, RIOK2 (Homo sapiens, UniProt Q9BVS4); test: KinomeScan; type: binding; conditions: 1uM
T19 construct: purchased DiscoveRx KINOMEscan

HCK = target: T20, HCK (Homo sapiens, UniProt P08631); test: KinomeScan; type: binding; conditions: 1uM
T20 construct: purchased DiscoveRx KINOMEscan

[2] = target: T21, ABL1(Q252H)-phosphorylated (Homo sapiens, UniProt P00519, Q252H); test: KinomeScan; type: binding; conditions: 1uM
T21 construct: purchased DiscoveRx KINOMEscan

[3] = target: T22, TYK2(JH1domain-catalytic) (Homo sapiens, UniProt P29597); test: KinomeScan; type: binding; conditions: 1uM
T22 construct: TYK2(JH1domain-catalytic); purchased DiscoveRx KINOMEscan

NEK11 = target: T23, NEK11 (Homo sapiens, UniProt Q8NG66); test: KinomeScan; type: binding; conditions: 1uM
T23 construct: purchased DiscoveRx KINOMEscan
T23 sequence (Q8NG66 whole entry): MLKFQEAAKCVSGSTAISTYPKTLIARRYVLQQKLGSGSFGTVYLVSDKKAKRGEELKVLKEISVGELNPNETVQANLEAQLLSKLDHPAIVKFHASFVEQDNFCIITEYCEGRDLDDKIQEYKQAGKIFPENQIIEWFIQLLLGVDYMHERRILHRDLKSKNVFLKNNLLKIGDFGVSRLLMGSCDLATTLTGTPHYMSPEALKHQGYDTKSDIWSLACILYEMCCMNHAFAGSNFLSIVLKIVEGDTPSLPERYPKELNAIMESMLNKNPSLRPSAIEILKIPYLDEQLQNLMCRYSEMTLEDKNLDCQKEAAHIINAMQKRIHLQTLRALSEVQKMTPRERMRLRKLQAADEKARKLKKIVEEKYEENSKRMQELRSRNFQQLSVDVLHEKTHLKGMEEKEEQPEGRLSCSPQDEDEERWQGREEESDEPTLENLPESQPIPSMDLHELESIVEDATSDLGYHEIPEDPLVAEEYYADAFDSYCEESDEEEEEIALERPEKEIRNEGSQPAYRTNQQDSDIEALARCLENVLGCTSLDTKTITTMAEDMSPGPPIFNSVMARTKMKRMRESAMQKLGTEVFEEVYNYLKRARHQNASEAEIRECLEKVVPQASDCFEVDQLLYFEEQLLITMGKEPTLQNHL

BIKE = target: T24, BIKE (Homo sapiens, UniProt Q9NSY1); test: KinomeScan; type: binding; conditions: 1uM
T24 construct: purchased DiscoveRx KINOMEscan

PI3Kδ = PI3Kδ (Homo sapiens, UniProt O00329); test: Kinase kinetic assay (ATP competition, ADP-Glo); type: biochemical; conditions: varied ATP concentration
Method: Kinetic analyses of PI3KCD were performed using a luminometric kinase assay varying the concentration of ATP using the ADP-Glo reagents (Promega). […] After 60 min incubation at RT, varied concentrations of ATP, 0.1mM substrate PIP2:PS were added and incubated for 60 min at 37°C. The overall rate of reaction was determined as the slope of the decreasing phase of the reaction. Each data point was collected in duplicate and kinetic parameters were obtained using Prism 5.0 (GraphPad Software, San Diego, CA).

NDR2 = target: T25, NDR2 (Homo sapiens, UniProt Q9Y2H1); test: KinomeScan; type: binding; conditions: 1uM
T25 construct: purchased DiscoveRx KINOMEscan

NEK2 = target: T26, NEK2 (Homo sapiens, UniProt P51955); test: KinomeScan; type: binding; conditions: 1uM
T26 construct: purchased DiscoveRx KINOMEscan

PIK3CD = target: T27, PIK3CD (Homo sapiens, UniProt O00329); test: KinomeScan; type: binding; conditions: 1uM
T27 construct: purchased DiscoveRx KINOMEscan

[4] = target: T28, ABL1(F317L)-nonphosphorylated (Homo sapiens, UniProt P00519, F317L); test: KinomeScan; type: binding; conditions: 1uM
T28 construct: purchased DiscoveRx KINOMEscan

PRKCD = target: T29, PRKCD (Homo sapiens, UniProt Q05655); test: KinomeScan; type: binding; conditions: 1uM
T29 construct: purchased DiscoveRx KINOMEscan
T29 sequence (Q05655 whole entry): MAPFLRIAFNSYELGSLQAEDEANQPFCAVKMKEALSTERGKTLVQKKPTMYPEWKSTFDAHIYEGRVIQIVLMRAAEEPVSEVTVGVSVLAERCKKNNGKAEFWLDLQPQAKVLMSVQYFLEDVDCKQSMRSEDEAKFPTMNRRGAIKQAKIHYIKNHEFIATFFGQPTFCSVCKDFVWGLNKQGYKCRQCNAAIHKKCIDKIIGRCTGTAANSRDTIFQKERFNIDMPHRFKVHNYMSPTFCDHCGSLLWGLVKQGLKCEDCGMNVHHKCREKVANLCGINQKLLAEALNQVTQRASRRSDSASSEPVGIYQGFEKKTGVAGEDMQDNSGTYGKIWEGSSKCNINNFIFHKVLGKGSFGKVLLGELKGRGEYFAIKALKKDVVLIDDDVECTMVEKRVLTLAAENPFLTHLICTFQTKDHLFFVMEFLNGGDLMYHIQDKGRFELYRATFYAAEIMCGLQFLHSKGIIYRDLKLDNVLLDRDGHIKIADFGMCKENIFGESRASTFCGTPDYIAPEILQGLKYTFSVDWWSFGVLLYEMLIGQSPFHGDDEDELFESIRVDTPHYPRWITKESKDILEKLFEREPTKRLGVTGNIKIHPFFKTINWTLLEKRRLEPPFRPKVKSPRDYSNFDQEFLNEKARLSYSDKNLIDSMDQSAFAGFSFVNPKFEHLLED

BTK = target: T30, BTK (Homo sapiens, UniProt Q06187); test: KinomeScan; type: binding; conditions: 1uM
T30 construct: purchased DiscoveRx KINOMEscan

ASK1 = target: T31, ASK1 (Homo sapiens, UniProt Q99683); test: KinomeScan; type: binding; conditions: 1uM
T31 construct: purchased DiscoveRx KINOMEscan

Cc1nc(NC(=O)[C@@H](N)C(C)C)sc1-c1cnc(Cl)c(NS(=O)(=O)c2ccccc2)c1 [PI3KD-IN-015]
GI50 (AML patient primary cell; AML1, patient primary cell AML1): 1.83 µM | GI50 (AML patient primary cell; AML3, patient primary cell AML3): 9.2 µM | GI50 (AML patient primary cell; most of AML patient cells): < 10 µM | GI50 (AML patient primary cell; patient primary cell AML2): 0.85 µM | GI50 (AML patient primary cell; patient primary cell AML4): 2.8 µM | GI50 (AML patient primary cell; patient primary cell AML5): 6.3 µM | GI50 (AML patient primary cell; patient primary cell AML6): > 10 µM | KinomeScan EPHA5 (EPHA5): 100 | KinomeScan PLK4 (PLK4): 99 | KinomeScan NLK (NLK): 92 | KinomeScan PRKX (PRKX): 95 | KinomeScan MAP4K3 (MAP4K3): 91 | KinomeScan NEK1 (NEK1): 100 | IC50 (PI4KA): > 10 µM | KinomeScan ERBB4 (ERBB4): 98 | KinomeScan STK35 (STK35): 92 | IC50 (PIK3C2B): > 10 µM | KinomeScan WEE1 (WEE1): 100 | KinomeScan AXL (AXL): 97 | KinomeScan TGFBR1 (TGFBR1): 97 | KinomeScan LKB1 (LKB1): 79 | KinomeScan RSK1(Kin.Dom.2-C-terminal) [1]: 96 | KinomeScan p38-alpha (p38-alpha): 100 | KinomeScan NIK (NIK): 83 | KinomeScan PDGFRB (PDGFRB): 98 | KinomeScan RIOK2 (RIOK2): 72 | KinomeScan HCK (HCK): 100 | KinomeScan ABL1(Q252H)-phosphorylated [2]: 90 | KinomeScan TYK2(JH1domain-catalytic) [3]: 100 | KinomeScan NEK11 (NEK11): 86 | KinomeScan BIKE (BIKE): 73 | binding kinetics / mode of inhibition (PI3Kδ): ATP competitive inhibitor | KinomeScan NDR2 (NDR2): 100 | KinomeScan NEK2 (NEK2): 100 | KinomeScan PIK3CD (PIK3CD): 0 | KinomeScan ABL1(F317L)-nonphosphorylated [4]: 100 | KinomeScan PRKCD (PRKCD): 100 | KinomeScan BTK (BTK): 81 | KinomeScan ASK1 (ASK1): 88
